Key:
[1] = Excipient (HP-CD) effects on food intake and body weight; type: in vivo; conditions: 2% HP-CD/saline, 1 mL/kg, 7 days, lean male rats n = 5
Protocol: As the excipient used to place ASK1476 in solution, HP-CD, was used in excess, a preliminary experiment was run to examine whether it produces any anorectic effects independently. Testing consisted of a 7-day normal saline treated phase followed by a 7-day 2% HP-CD/saline solution (dose 1 mL/kg) treated phase in lean male rats (n = 5; at start of HP-CD treatment: mean 410 g, SD 26 g). […] Food intake was continuously recorded using AccuScan DietMax (currently OmniTech Electronics, Inc., Diet System) cages and data were binned into 15-min intervals for analysis. The start of the 24-h food intake period aligned to the lights turning off in the animal room. Body weight was recorded, and treatment injections were administered just prior to the start of the dark cycle.

V2R = V2R agonist; no reference given; cited from earlier work
Text: Whereas the overall profile of ASK1476 met the primary aim of our studies including the enhanced stability of the OXTR activator in vivo, the molecule did display a significant activation of the V2R. As mentioned above, the receptor plays the key role in both urine and water homeostasis.

Substance	7-day food intake, difference vs saline ([1]; 95% CU −0.19 to 0.71, p = 0.187) [g]	body weight gain, difference vs saline ([1]; 95% CU −0.99 to 0.95, p = 0.950) [g]	side effects in the clinical setting (V2R)
Hydroxypropyl-β-cyclodextrin [HP-CD]	0.26	-0.02	
desmopressin			hyponatremia and renal water retention

Source: PMC8502973 (Frontiers in Physiology, 2021)
